Assay results published in patent publication US9682033B2, “Methods of treating postherpetic neuralgia with a topical formulation of a spiro-oxindole compound” (Teva Pharmaceuticals International GmbH, priority 2015, dated 2017).
Entries after “also recorded” stand apart in the source; their conditions may differ.

Columns and labels:
NaV1.7 = NaV1.7 (Homo sapiens, UniProt Q15858); test: In vitro electrophysiological studies: block of NaV1.7; assay type: biochemical; conditions: fold greater for the inactivated state
Source text: NaV1.7 is expressed primarily in the peripheral nervous system in both sensory and sympathetic neurons (Raymond, C. K., et al., op. cit.). Loss-of-function mutations in SCN9A (the gene encoding the alpha subunit of the NaV1.7 sodium channel) cause a human condition known as congenital indifference to pain characterized by an inability to perceive pain (Cox, J. J., et al., Nature (2006), 444:894-98; Goldberg, Y. P., et al., Clin Genet (2007), 71:311-9). Gain-of-function mutations in SCN9A are associated with inherited erythromelalgia (IEM) (Drenth, J. P., et al., J Invest Dermatology (2005), 124:1333-8), which is characterized by spontaneous or easily evoked severe pain. Furthermore, up to 29% of biopsy-proven cases of idiopathic small-fiber neuropathy manifesting mainly as distal severe pain (Faber, C. G., et al., Ann Neurol (2012), 71:26-39) are associated with gain-of-function NaV1.7 channel mutations.

[1] = Drug-drug interaction study in healthy subjects: pharmacokinetics of the spiro-oxindole compound (Biological Example 5); assay type: in vivo, human
Source text: Pharmacokinetic parameters were derived by noncompartmental analysis.

[2] = test system: bacterial reverse mutation; test: Bacterial reverse mutation assay (GLP); assay type: cell-based
Source text: The spiro-oxindole compound was not genotoxic in the standard battery of genotoxicity tests (GLP), including a bacterial reverse mutation assay, an in vitro chromosome aberration assay in cultured human lymphocytes, and an in vivo rat bone marrow micronucleus test.

[3] = Joint penetration and tissue distribution study in domestic pig, multiple-dose topical administration (Biological Example 2); assay type: in vivo
Method: This study was conducted to evaluate the joint penetration, systemic plasma exposure and tissue distribution of the spiro-oxindole compound in domestic pigs following topical administration of a pharmaceutical composition utilized in the methods of the invention. Fifteen female pigs were used in this study with three pigs in each group. Beginning on Day 1, a pharmaceutical composition of the invention was topically applied to the left radiocarpal joint (carpus) and tibiotarsal joint (hock) twice daily (bid) for 17 days (34 applications) for Groups 1-4 and once daily (qd) for 17 days (17 applications) for Group 5. Pre-dose blood samples (prior to morning dosing) was collected on Days 2, 7, 10, 14 and 17. A full pharmacokinetic sampling was performed on Day 17 (post am dosing) at the following time points: 1, 2, 4, 8 and 12 hr. On the day of necropsy, Day 18, blood was collected prior to euthanasia, each pig was humanely euthanized and dorsal skin and muscle, liver, kidney, heart, lung, brain, intestine, fat, ovaries, urinary bladder, sciatic nerve, and skin, muscle, synovial membrane, and synovial fluid from all 4 joints (2 treated, left carpus and hock, and 2 untreated, right carpus and hock) was collected.
Doses were calculated by measuring the joint circumference and joint width (to include ˜2 cm above and below the joint) to calculate the total surface area for each individual dose. Group 1 received a 2% pharmaceutical composition of the invention and the dose volume for Group 1 was calculated using the total surface area and the designated dose volume of 3 μL/cm^2. The total dose volume was then converted from μL to mL to estimate the dose weight in grams, based on the composition density of 1 g/cm^3. Following is an example (not actual measurements) of calculating the dose:
For Groups 2-5, the dose volume was calculated using the total surface area and the designated dose volume of 3 μL/cm^2 (Groups 2, 3 and 5) or 1 μL/cm^2 (Group 4). […]

[4] = domestic pig, topical administration to a joint

NaV1.7, sequence (Q15858 whole entry): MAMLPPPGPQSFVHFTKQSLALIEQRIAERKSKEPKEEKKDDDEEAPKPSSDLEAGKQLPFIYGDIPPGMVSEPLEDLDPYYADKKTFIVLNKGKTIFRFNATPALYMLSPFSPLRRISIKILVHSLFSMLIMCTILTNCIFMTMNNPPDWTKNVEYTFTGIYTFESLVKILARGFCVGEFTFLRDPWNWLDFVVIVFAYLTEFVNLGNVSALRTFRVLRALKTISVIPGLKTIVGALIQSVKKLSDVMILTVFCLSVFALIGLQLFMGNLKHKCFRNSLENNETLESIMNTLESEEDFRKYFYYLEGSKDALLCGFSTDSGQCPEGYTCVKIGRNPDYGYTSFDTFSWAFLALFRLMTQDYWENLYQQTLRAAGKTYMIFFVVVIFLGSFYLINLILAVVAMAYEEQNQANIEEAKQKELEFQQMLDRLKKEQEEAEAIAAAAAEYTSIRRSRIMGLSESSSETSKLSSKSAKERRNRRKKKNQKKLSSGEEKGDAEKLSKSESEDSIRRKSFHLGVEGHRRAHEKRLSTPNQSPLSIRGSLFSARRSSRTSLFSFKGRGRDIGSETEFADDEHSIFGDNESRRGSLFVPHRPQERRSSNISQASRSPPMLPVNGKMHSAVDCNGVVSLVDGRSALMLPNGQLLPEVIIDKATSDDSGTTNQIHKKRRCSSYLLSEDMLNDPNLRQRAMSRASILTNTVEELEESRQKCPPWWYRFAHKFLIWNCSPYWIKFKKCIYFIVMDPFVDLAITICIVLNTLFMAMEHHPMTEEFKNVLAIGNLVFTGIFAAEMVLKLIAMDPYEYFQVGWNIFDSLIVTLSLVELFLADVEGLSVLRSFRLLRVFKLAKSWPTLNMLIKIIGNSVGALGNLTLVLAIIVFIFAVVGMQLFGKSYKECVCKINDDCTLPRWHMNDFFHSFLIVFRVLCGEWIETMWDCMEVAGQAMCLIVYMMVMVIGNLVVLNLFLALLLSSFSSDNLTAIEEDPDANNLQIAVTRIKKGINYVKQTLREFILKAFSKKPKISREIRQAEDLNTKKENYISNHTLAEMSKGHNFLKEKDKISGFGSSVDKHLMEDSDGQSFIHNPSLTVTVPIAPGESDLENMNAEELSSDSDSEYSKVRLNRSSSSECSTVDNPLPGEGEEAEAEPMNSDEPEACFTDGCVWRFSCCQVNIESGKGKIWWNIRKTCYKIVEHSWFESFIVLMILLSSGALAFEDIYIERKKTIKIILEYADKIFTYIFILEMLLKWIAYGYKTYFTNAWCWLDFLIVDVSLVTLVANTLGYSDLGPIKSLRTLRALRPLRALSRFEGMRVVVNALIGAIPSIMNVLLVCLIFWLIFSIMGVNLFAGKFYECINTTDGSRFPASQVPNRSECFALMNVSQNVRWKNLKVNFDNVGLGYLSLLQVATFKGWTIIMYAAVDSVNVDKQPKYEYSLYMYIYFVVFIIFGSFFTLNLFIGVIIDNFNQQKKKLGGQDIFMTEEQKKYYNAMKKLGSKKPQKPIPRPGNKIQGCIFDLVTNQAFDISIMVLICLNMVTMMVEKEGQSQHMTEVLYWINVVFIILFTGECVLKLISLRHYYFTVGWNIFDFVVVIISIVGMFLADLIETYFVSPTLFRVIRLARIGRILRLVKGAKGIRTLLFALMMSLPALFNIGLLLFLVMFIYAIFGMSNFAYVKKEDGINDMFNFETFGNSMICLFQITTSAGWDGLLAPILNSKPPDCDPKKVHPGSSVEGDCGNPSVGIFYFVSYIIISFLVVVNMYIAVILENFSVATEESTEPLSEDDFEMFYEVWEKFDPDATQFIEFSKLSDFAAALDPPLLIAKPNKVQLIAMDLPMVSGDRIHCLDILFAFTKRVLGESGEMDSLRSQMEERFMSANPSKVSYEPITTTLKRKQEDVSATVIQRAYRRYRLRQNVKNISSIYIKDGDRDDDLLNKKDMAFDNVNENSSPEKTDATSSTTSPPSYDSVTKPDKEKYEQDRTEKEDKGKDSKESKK

In the case of `O=C1N(Cc2ccc(C(F)(F)F)o2)c2ccccc2[C@]12COc1cc3c(cc12)OCO3` [spiro-oxindole compound, (S)-1′-{[5-(trifluoromethyl)furan-2-yl]methyl}spiro[furo[2,3-f][1,3]benzodioxole-7,3′-indol]-2′(1′H)-one], the “potency of block against NaV1.7, inactivated state compared with resting state” value (NaV1.7) is reported as “approximately 220 fold”, the “relationship of exposure with CYP2C19 phenotype” value [1] is reported as “no apparent relationship” and the “mean plasma concentration at the follow-up visit (360±24 hours)” value ([1]; after final application of 8% composition) is reported as 0.32629 ng/mL. It also gave a Cmax ([1]; both sexes, human, plasma, topical, 8 % composition applied to 53% of BSA, BID, day 9, over 24 hours from the final application, read-out: geometric mean Cmax) of 15.1 ng/mL, an AUC(0-t) ([1]; both sexes, human, plasma, topical, 8 % composition applied to 53% of BSA, BID, first 12 hours after the final application, read-out: geometric mean AUC0-12) of 133 ng·h/mL and a concentration at 24 hours ([1]; both sexes, human, plasma, topical, 8 % composition applied to 53% of BSA, day 9, after final application of 8% composition (BID, 53% BSA, 7.5 days), read-out: mean plasma concentration at 24 hours postdose) of 11.7 ng/mL. For the same compound, the “geometric mean Ctrough (predose value)” value ([1]; day 9, topical 8% composition BID 53% BSA) was 12.76052 ng/mL, the “average concentration over the 12-hour period” value ([1]; first 12 hours after the final application) was 11075.55 pg/mL and the “steady state (in words)” value ([1]; topical BID dosing) was “steady state had not been achieved after 7.5 days of dosing; also recorded: did not reach steady state within 7.5 days”. The genotoxicity [2] was “not genotoxic”, the “concentration in the synovial membrane tissue of the treated joint (in words)” value [3, 4] was “micromolar concentrations” and the “plasma concentrations (in words)” value [3, 4] was “nanomolar”. The “spiro-oxindole compound concentration in liver tissue” value ([3]; pig G2 (#4-6): 4% composition, 3 μL/cm^2 bid topical 17 days, individual animals) was 0/0.
